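Dose response: 5 concentrations. Exposure: 48 h. Format: 96-well plates. Endpoint: linear interpolation; highest concentration if not reached. TGI denotes the concentration required for complete inhibition of growth.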
What was measured:
Experiment in all cases: growth of human tumour cells (NCI), 48 h
[1] = system: KM12 colon
[2] = system: SNB-19 CNS
[3] = system: SNB-75 CNS
[4] = system: HL-60(TB) leukemia
[5] = system: COLO 205 colon
[6] = system: MDA-MB-435
[7] = system: SN12C renal
[8] = system: SK-OV-3 ovarian
[9] = system: T-47D breast
[10] = system: NCI-H522 lung

Structure (SMILES) | TGI [1] | TGI [2] | TGI [3] | TGI [4] | TGI [5] | TGI [6] | TGI [7] | TGI [8] | TGI [9] | TGI [10]
Cc1oc2c(cc(O)c3cc(O)ccc32)c2cccc1-2 | > 100 µM | > 100 µM | > 100 µM | > 100 µM | > 100 µM | > 100 µM | > 100 µM | > 100 µM | > 100 µM | > 100 µM
COC(=O)C1=C(C(=O)OC)SC(=C2SCSC3=C2SC(C(=O)OC)=C(C(=O)OC)C32SC3=C(CCCC3)S2)S1 | > 100 µM | > 100 µM | 36.3 µM | > 100 µM | > 100 µM | > 100 µM | > 100 µM | > 100 µM | > 100 µM | > 100 µM
C/C(=C\CBr)CCC(Br)C(C)(C)Br (stereo not given) | > 100 µM | > 100 µM | > 100 µM | > 100 µM | > 100 µM | > 100 µM | > 100 µM | > 100 µM | > 100 µM | > 100 µM
CC(=O)/C=C/C1=C(C)CCCC1(C)CC(C)C (stereo not given) | > 100 µM | > 100 µM | 93 µM | 30.3 µM | > 100 µM | > 100 µM | 38.5 µM | > 100 µM | 55.5 µM | 57.8 µM
Cn1c(=O)c2c(nc3n2CC(C(=O)O)N3)n(C)c1=O (stereo not given) | > 100 µM | > 100 µM | > 100 µM | > 100 µM | > 100 µM | > 100 µM | > 100 µM | > 100 µM | > 100 µM | > 100 µM
CCOC(=O)N1CCN(Cc2cc(=O)n3ccc(C)cc3n2)CC1 | > 100 µM | > 100 µM | > 100 µM | > 100 µM | > 100 µM | > 100 µM | > 100 µM | > 100 µM | > 100 µM | > 100 µM
C[C@]12CCC3C4=C(CCC3C1CCC2=O)C(=O)[C@H]1O[C@H]1C4=O (stereo not given in full) | 18.3 µM | 30 µM | 8.14 µM | 7.93 µM | 9.23 µM | 24.9 µM | 7.71 µM | 28 µM | 2.78 µM | 3.36 µM
Cc1ccc(NC(=O)c2ccc(OP(=O)(O)Nc3ccc(C)cc3)cc2)cc1 | > 100 µM | > 100 µM | > 100 µM | > 100 µM | > 100 µM | > 100 µM | > 100 µM | > 100 µM | > 100 µM | > 100 µM
CC1=Nc2ccccc2OC(C)=C1N=Nc1ccc2nc(C)[nH]c2c1 | > 100 µM | > 100 µM | > 100 µM | > 100 µM | > 100 µM | > 100 µM | > 100 µM | > 100 µM | > 100 µM | > 100 µM
O=C(/C=C/c1ccccc1)C[C@@H](O)C[C@@H]1CC=CC(=O)O1 | 16.5 µM | 35.7 µM | > 53.7 µM | 5.06 µM | 17.8 µM | 26.6 µM | 25.2 µM | 38.7 µM | 42.2 µM | 6.9 µM
Cc1cc(C)nc(NS(=O)(=O)c2ccc(NC(=O)c3ccc4nc5ccccc5c(Nc5ccc(S(N)(=O)=O)cc5)c4c3)cc2)n1 | > 100 µM | > 100 µM | > 100 µM | > 100 µM | > 100 µM | > 100 µM | > 100 µM | > 100 µM | > 100 µM | > 100 µM
O=C(NCc1ccccc1)c1n[nH][nH]c1=O | > 100 µM | > 100 µM | > 100 µM | > 100 µM | > 100 µM | > 100 µM | > 100 µM | > 100 µM | > 100 µM | > 100 µM
COC(=O)c1c(C)nc2c1cc(O)c1[nH]c(C)c(C)nc12 | > 100 µM | > 100 µM | 71.8 µM | > 100 µM | > 100 µM | > 100 µM | > 100 µM | > 100 µM | > 100 µM | > 100 µM
[N-]=[N+]=NC(c1ccccc1)(c1ccccc1)c1ccccc1 | 46.8 µM | 39.5 µM | 34.4 µM | 39.4 µM | 27.8 µM | 44 µM | 30.9 µM | > 100 µM | 38.4 µM | 33.5 µM
Cc1cc(-c2nc3ccc(F)cc3s2)ccc1NC(=O)[C@H](C)N | 15.3 µM | 29.6 µM | 25.4 µM | 7.45 µM | 23.8 µM | 5.82 µM | 28.7 µM | 28.2 µM | > 37.4 µM | 20.7 µM
O=[N+]([O-])c1ccc2[nH]nc(OCc3ccccc3Cl)c2c1 | > 100 µM | > 100 µM | > 100 µM | > 100 µM | > 100 µM | > 100 µM | > 100 µM | 31.9 µM | 42.9 µM | 72.7 µM
